The subject of series [1] is Tumor 41 (pancreatic tumor). Nature of the series: Direct pancreatic cancer derived xenograft, Tumor 41. As to conditions: Gemcitabine 100 mg/kg 2 times/week for 4 weeks, ON-01910.Na 250 mg/kg/day for 4 weeks. It is filed as in vivo, mice. The source says:
(§1) Resected pancreatic adenocarcinomas are routinely implanted in nude mice at the Johns Hopkins Medical Institutions as a method to obtain enriched populations of neoplastic cells under an IRB-approved protocol from residual pancreatic cancer tumors. Briefly, tumor specimens from Whipple resection specimens were divided into 2-3 mm^3 pieces in antibiotic-containing RPMI media. Pieces of non-necrotic tissue were selected and immersed in Matrigel. Under anesthesia with isofluorane, tumors were implanted into five-to-six week-old female athymic (nu/nu) mice purchased from Harlan (Harlan Laboratories, Washington, D.C.). […] Tumor size was determined using calipers every four days for the course of the experiment. Relative tumor growth inhibition (TGI) was calculated as TGI=(Ti−T0/Ci−C0), where Ti and Ci represent tumor size in the treated and control group at 28-day, respectively; […] Experiments were terminated on day 28. […] Pancreatic tumors were implanted in mice as detailed above. Mice were treated with gemcitabine alone, ON-01910-Na alone, or a combination thereof as indicated. Tumor size was measured at four day intervals.

The test system of the next series is Plk1. Nature of the series: Plk1 expression analysis by RT-PCR in xenograft tumors harvested on day 28. It is filed as in vivo, mice. As to conditions: JH03 tumor, day 28, compared with the other tumors. The source says: Total RNA was extracted from cell pellets (and tumors) using the RNeasy™ Mini Kit (Qiagen, Valencia, Calif.). cDNA was synthesized using iScript cDNA synthesis kit (Bio-Rad, Hercules, Calif.) following the manufacturer's instructions. Relative quantification of Plk1 and ubiquitin C (UBC, used as housekeeper gene) mRNA was achieved using an iCycler iQ real-time PCR detection system (Bio-Rad) using ABI Taqman probes (Foster City, Calif.). The experiments were repeated twice and samples were run in quadruplicate.
On day 28, animals were euthanized and tumors were removed for Plk1 expression analysis by RT-PCR using standard protocols. Plk1 expression levels were expressed relative to expression in non-drug treated control.
On day 28, tumors were harvested and analyzed for Plk1 expression (FIG. 2C).

For series [2], the system named is Tumor 28 (pancreatic tumor). Nature of the series: Direct pancreatic cancer derived xenograft, Tumor 28. It is filed as in vivo, mice. Conditions: Gemcitabine 100 mg/kg 2 times/week for 4 weeks, ON-01910.Na 250 mg/kg/day for 4 weeks.
Source text: as §1

In series [3] the test system is Tumor JH03 (pancreatic tumor). Nature of the series: Direct pancreatic cancer derived xenograft, Tumor JH03. The class given is in vivo, mice. As to conditions: Gemcitabine 100 mg/kg 2 times/week for 4 weeks, ON-01910.Na 250 mg/kg/day for 4 weeks.
Source text: as §1

Series [4] deals with Solid tumors including prostate, breast, and lung. As to conditions: oral; cited from earlier work.

With `Nc1ccn(C2OC(CO)C(O)C2(F)F)c(=O)n1` (centres unmarked) [gemcitabine, 4-amino-1-[3,3-difluoro-4-hydroxy-5-(hydroxymethyl)tetrahydrofuran-2-yl]-1H-pyrimidin-2-one], the “susceptibility of tumor to treatment (tumor growth)” value in series [1] was “susceptible”; in series [2], “resistant”; in series [3], “susceptible”. The “Plk1 expression in tumor after exposure” value in the series with Plk1 is given as “lowest expression of Plk1”.

Regarding `CCCCCCCCCCCCCCCC(=O)Nc1ccn([C@@H]2O[C@H](CO)[C@@H](O)[C@@H]2C#N)c(=O)n1` [sapacitabine], the maximum tolerated dose entry in series [4] is recorded as “dose 160 mg/m^2/day”.

The values are drawn from patent US9545418B2, “ON01910.Na enhances chemotherapeutic agent activity in drug-resistant tumors” (THE JOHNS HOPKINS UNIVERSITY, priority 2008, dated 2017).
